# Patent EP0369733A2, “Fluorescent indicator dyes for alkali metal cations, their preparation and use” (THE REGENTS OF THE UNIVERSITY OF CALIFORNIA, priority 1988, dated 1990)
# Where “and” joins values, the source holds several entries; their conditions need not be identical. Identical values can stand only once.
# Tests used:
# [1] = Cation titration followed by absorbance or fluorescence excitation spectra: Ca²⁺ binding; settings: 0.1 M tetramethylammonium chloride, 1-5 mM tris(hydroxymethyl)aminomethane, high pH; read-out: Dissociation constants (Kd) in mM for Ca²⁺
# Method: (§1) • Footnote a: For molecular structures, see Fig. 1. • Footnote b: Except where otherwise noted, these dissociation constants were measured with the chelator dissolved in 0.1 M tetramethylammonium chloride, at a pH held high enough with 1-5 mM tris(hydroxymethyl)aminomethane for protonation to be insignificant. The absorbance spectrum, or the fluorescence excitation spectrum for those compounds (2GG, 2NN, 2OO, 2PP, 3NN) with acronyms was measured as a function of the concentration of cation added as a solid or concentrated aqueous solution of the halide salt. No correction has been made for the changing ionic strength of the solution, which started from 0.1 M and increased, but the absorbances and fluorescence amplitudes were applied for dilution of the dye and any slight quenching due to high concentrations of Cl⁻. • Footnote c: These protonation constants were determined in 0.1 M tetramethylammonium chloride, 10 mM tris(hydroxymethyl)aminomethane, titrated with 5 M H₃PO₄ to successively lower pH values measured with a Radiometer PHM84 meter. […] The first number is the wavelength in nanometers, followed in parentheses by 10⁻³ x the corresponding extinction coefficient, M⁻¹cm⁻¹. […] Emission maxima are not corrected for the spectral sensitivity of the emission detection. Quantum efficiencies were measured (13) by comparing the integral of the corrected emission spectrum with the corresponding integral for a solution of quinine bisulfate in 1 N H₂SO₄ of matched absorbance at the excitation wavelength.
# (§2) Affinities for other cations were usually measured by titrating aqueous solutions of the indicator with metal chlorides added either as solid or from concentrated stock solutions, taking care to minimize dilution and correct for it. A convenient way to mass-produce premeasured micromole to millimole aliquots of solid NaCl or KCl was to pipet saline solutions into polypropylene micro test tubes and evaporate the water in an oven. The standard ionic background was again 100 mM tetramethylammonium chloride, usually with a few mM of tris(hydroxymethyl)-aminomethane base to hold the pH high enough (pH 8-9) to insure that protonation was negligible. This convenient titration procedure had the slight disadvantage that the ionic strength was not constant, especially when large quantities of a salt had to be added due to weak affinities. […] When constant ionic strength was desired, the chelator was made up at identical concentrations in matched solutions of NaCl, KCl, or tetramethylammonium chloride, then these stocks were mixed in the desired proportions. All measurements were made at room temperature (22°, ±2° C).
# [2] = Cation titration followed by absorbance or fluorescence excitation spectra: Na⁺ binding; settings: for Kd: read-out: Dissociation constants (Kd) in mM for Na⁺
# Method: as §1, §2
# [3] = Cation titration followed by absorbance or fluorescence excitation spectra: Mg²⁺ binding; settings: read-out: Dissociation constants (Kd) in mM for Mg²⁺
# Method: as §1
# as §2, with “proportions.” for “proportions. All measurements were made at room temperature (22°, ±2° C).”
# physchem = settings: 0.1 m tetramethylammonium chloride
# [4] = Cation titration followed by absorbance or fluorescence excitation spectra: Li⁺ binding; settings: for Kd: 0.1 M tetramethylammonium chloride, 1-5 mM tris(hydroxymethyl)aminomethane, high pH, read-out: Dissociation constants (Kd) in mM for Li⁺
# Method: as §1, §2
# [5] = UV absorbance spectra without and with saturating cation; format: physicochemical; settings: for Absorbance maxima -Na⁺ (wavelength): 100 mM tetramethylammonium chloride plus 1-5 mM Tris; for Absorbance maxima -Na⁺ (wavelength) / Absorbance maxima -Na⁺ (extinction coefficient): no Na⁺; for Absorbance maxima +Na⁺ (wavelength): enough NaCl added (0.2-1 M) to saturate the Na⁺ binding; for Absorbance maxima -Na⁺ (extinction coefficient) / Absorbance maxima +Na⁺ (extinction coefficient): number is 10⁻³ x the extinction coefficient; for Absorbance maxima -Na⁺ (extinction coefficient): lower limits for most compounds; for Absorbance maxima +Na⁺ (extinction coefficient): lower limits, saturating NaCl (0.2-1 M)
# Method: as §1
# (§3) UV absorbance spectra were recorded initially on a Cary 210 and later on a Perkin-Elmer Lambda Array 3840 spectrophotometer. Fluorescence excitation and emission spectra and quantum efficiencies were measured on a Spex Fluorolog 111 as described previously (13).
# [6] = Fluorescence excitation/emission spectra and quantum efficiency; format: physicochemical; settings: for Emission maxima -Na⁺: 100 mM tetramethylammonium chloride; for Emission maxima -Na⁺ / Quantum efficiency -Na⁺: no Na⁺; for Emission maxima -Na⁺ / Emission maxima +Na⁺: not corrected for detector sensitivity; for Quantum efficiency -Na⁺ / Quantum efficiency +Na⁺: relative to quinine bisulfate in 1 N H₂SO₄ (0.55); for Emission maxima +Na⁺: saturating NaCl; for Quantum efficiency +Na⁺: saturating Na⁺; for fluorescence quantum yield: ±Na⁺ not specified
# Method: as §1, §3
# [7] = Proton dissociation constants in 0.1 M tetramethylammonium chloride; settings: second value (second protonation), 10 mM Tris titrated with 5 M H₃PO₄
# [8] = 0.1 M tetramethylammonium chloride, 1-5 mM tris(hydroxymethyl)aminomethane, pH high enough for protonation to be insignificant, 22°
# [9] = association constant, inert background cation (tetramethylammonium)
# [10] = 0.1 M tetramethylammonium chloride, 1-5 mM tris(hydroxymethyl)aminomethane, high pH
# [11] = footnote h: 3.0 M ionic strength (3.0 M NaCl mixed with 3.0 M tetramethylammonium chloride)
Compound,Kd [1] [mM],"Kd [2, 8] [mM]","Na⁺ affinity [2, 9] [M⁻¹]",pKa (physchem),Kd [4] [mM],Absorbance maxima -Na⁺ (wavelength) [5],Absorbance maxima +Na⁺ (wavelength) [5],"Kd [2, 11] [mM]",Emission maxima -Na⁺ [6] [nanometers],Quantum efficiency -Na⁺ [6],Emission maxima +Na⁺ [6] [nanometers],Quantum efficiency +Na⁺ [6],pKa [7],Absorbance maxima -Na⁺ (extinction coefficient) [5] [M⁻¹ cm⁻¹],Absorbance maxima +Na⁺ (extinction coefficient) [5],further results
"CC(=O)Nc1ccc(N2CCOCCOCCOCCOCC2)c2ncccc12 [Compound 1C, N-(5-acetamido-8-quinolinyl)-aza[15]-crown-5]",10,67,15,< 7,63,349 nanometers and 252 nanometers,304 nanometers and 229 nanometers,,,,,,,,,"Kd [3, 10]: 12 mM"
"CC(=O)Nc1ccc(N2CCOCCOCCN(c3ccc(NC(C)=O)c4ccc(C)nc34)CCOCC2)c2nc(C)ccc12 [Compound 2DD, N,N-bis-(5-acetamido-2-methyl-8-quinolinyl)-diaza[15]-crown-5]",,9.4,,7.55,,,,4.4,525,.01,510,.01,5.62,,,Na⁺ affinity relative to 2CC ([2]; fraction of the affinity of 2CC retained): more than half; fluorescence quantum yield [6]: 0.01; Absorbance maxima -Na⁺ (wavelength) ([5]; listed as 2DO): 344 nanometers and 256 nanometers; Absorbance maxima +Na⁺ (wavelength) ([5]; listed as 2DO): 306 nanometers and 237 nanometers
"Cc1ccc2c(n1)c(N1CCOCCOCCN(c3cc4oc(-c5ccc(C(=O)O)c(C(=O)O)c5)cc4c4ccc(C)nc34)CCOCC1)cc1oc(-c3ccc(C(=O)O)c(C(=O)O)c3)cc12 [Compound 2GG, N,N-bis(2-(3,4-dicarboxyphenyl)-7-methylfuro [3,2-f]quinolin-5-yl)-diaza[15]-crown-5]",,4.7,,7.9,,,,,486,.005,525,.01,6.8,,,Absorbance maxima -Na⁺ (wavelength) ([5]; listed as 2GG (SQFP)): 373 nanometers and 308 nanometers; Absorbance maxima +Na⁺ (wavelength) ([5]; listed as 2GG (SQFP)): 362 nanometers and 307 nanometers; Absorbance maxima -Na⁺ (extinction coefficient) ([5]; listed as 2GG (SQFP)): 24000 M⁻¹ cm⁻¹ and 22000 M⁻¹ cm⁻¹; Absorbance maxima +Na⁺ (extinction coefficient) ([5]; listed as 2GG (SQFP)): 31000 M⁻¹ cm⁻¹ and 28000 M⁻¹ cm⁻¹
"Cc1ccc2cc(O)cc(N3CCOCCOCCN(c4cc(O)cc5ccc(C)nc45)CCOCC3)c2n1 [Compound 2FF, N,N-bis-(6-hydroxy-2-methyl-8-quinolinyl)-diaza[15]-crown-5]",,8.9,,,,363 nanometers,362 nanometers,,497,,466,,,2400,2300 M⁻¹ cm⁻¹,
"CC(=O)Nc1ccc(N2CCOCCOCCN(c3ccc(NC(C)=O)c4cccnc34)CCOCC2)c2ncccc12 [Compound 2CC, N,N-bis-(5-acetamido-8-quinolinyl)-diaza[15]-crown-5]",0.075,5.3,,6.85,2.8,346 nanometers and 250 nanometers,304 nanometers and 230 nanometers,2.4,,,,,5.43,,,Na⁺ affinity ([2]; depending on ionic strength): 190 to 415 M⁻¹; Kd ([3]; footnote i: free [Mg²⁺] controlled by Mg²⁺-nitrilotriacetate buffers at pH 8.5): 0.078 mM; affinity for Li⁺ (in words) ([4]; compared with its Na⁺ affinity): comparable to that for Na⁺
"COc1ccc(OC)c(N2CCOCCOCCN(c3cc(OC)ccc3OC)CCOCC2)c1 [Compound 2LL, N,N-bis-(2,5-dimethoxyphenyl)-diaza[15]-crown-5]",,10 to 20,,,,295 nanometers and 213 nanometers,291 nanometers,,,,,,,,4000 M⁻¹ cm⁻¹,
"O=C(O)CCC(=O)Nc1ccc(N2CCOCCOCCN(c3ccc(NC(=O)CCC(=O)O)c4cc5ccccc5nc34)CCOCC2)c2nc3ccccc3cc12 [Compound 2II, N,N-bis-(1-succinamidoacridin-4-yl)-diaza[15]-crown-5]",,0.32,3125,8.19,11.5,414 nanometers and 359 nanometers and 244 nanometers,360 nanometers and 251 nanometers,0.4,480,<.001,625,<.001,6.86,,,Na⁺:K⁺ selectivity ([2]; ratio of Na⁺ to K⁺ affinity): > 500; fluorescence quantum yield [6]: very poor
"COc1cc(NC(C)=O)ccc1N1CCOCCOCCN(c2ccc(NC(C)=O)cc2OC)CCOCC1 [Compound 2JJ, N,N-bis-(4-acetamido-2-methoxyphenyl)-diaza[15]-crown-5]",> 100,12,,6.31,72,261 nanometers,280 nanometers and 249 nanometers,,,,,,5.0,10800,5400 M⁻¹ cm⁻¹ and 10700 M⁻¹ cm⁻¹,"Na⁺ affinity ([2]; at I = 0.15): 83 M⁻¹; Kd [3, 10]: > 100 mM"
"Nc1ccc(N2CCOCCOCCOCCOCC2)c(C(=O)O)c1 [Compound 1B, N-(4-amino-2-carboxyphenyl)-aza[15]-crown-5]",,71,14,9.21,,295 nanometers,296 nanometers,,,,,,,1100,1100 M⁻¹ cm⁻¹,
